Where a name gives a salt, the structure may show the parent alone.
These molecules were tested against T1, Rev-Erb alpha (Homo sapiens, UniProt P20393) (assay: M2H (mammalian two-hybrid) cellular activation assay of Rev-Erb alpha). Settings: M2H assay, HEK293 cells, Gal4-Rev-Erb alpha / VP16-NCoR, luciferase reporter.
T1 sequence (P20393 284-614 limits assumed): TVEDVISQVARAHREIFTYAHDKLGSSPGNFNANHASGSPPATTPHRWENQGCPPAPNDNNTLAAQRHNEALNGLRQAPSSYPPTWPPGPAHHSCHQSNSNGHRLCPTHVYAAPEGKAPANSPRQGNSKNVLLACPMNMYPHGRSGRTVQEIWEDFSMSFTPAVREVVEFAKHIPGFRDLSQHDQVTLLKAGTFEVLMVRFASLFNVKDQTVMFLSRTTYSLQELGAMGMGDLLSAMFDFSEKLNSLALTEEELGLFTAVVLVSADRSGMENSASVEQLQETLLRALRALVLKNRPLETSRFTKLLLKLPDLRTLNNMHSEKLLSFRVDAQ
Format: cell-based
Method: In this system, Rev-Erb alpha or Rev-Erb beta is expressed as a fusion to the Gal4 DNA-binding domain and the cofactor NCoR is expressed as a fusion to the activation domain of the Herpes Simplex Virus tegument protein VP16. These fusion proteins were included in plasmids at a concentration of 1 μg/μL. The pBS-SK+ vector was added to the preparation to adjust the DNA quantity to a fixed value for each condition.
The transfection mix (Jet-PEI protocol, Polyplus transfection) comprised: • 3 mL of Jet PEI Mix (180 μL Jet-Pei and NaCl at 150 mM) and • 3 mL of the DNA Mix or of the DNA Mix control (wherein the Gal4-Rev-Erb alpha plasmid was replaced by a pGal4phi plasmid).
DNA Mix comprised 1.2 mL of DNA and 1.8 mL of NaCl at 150 mM with, in a T225 flask: • 90 ng of Gal4-Rev-Erb alpha, or 90 ng of Gal4-Rev-Erb beta, • 4500 ng of VP16-NCoR, • 27000 ng of Gal4-RE and • 13410 ng of pBS-SK+. Cells
HEK293 cells were cultured in DMEM (Invitrogen 41965) comprising 10% FBS, P/S, 1% glutamine, 1% pyruvate (Invitrogen 11360) and 1% amino acids (Invitrogen 11140). Cells were then batch co-transfected with plasmid vectors (described in the table above) using as Jet-PEI as reagent (Polyplus) following the protocol specified below.
The 6 mL-transfection mix was transferred in a T225 flask. HEK293 cells were then added at a concentration of 12 Millions of cells for 54 mL of medium (DMEM comprising 10% FBS and 1% P/S). Cells incubated over-night at 37° C. and under 5% CO2.
This cell-based assay is performed using 384-well Greiner white plates (Reference 781080). After the incubation, cells were rinsed with PBS, trypsinized, centrifuged and resuspended in free-serum DMEM without phenol red (Invitrogen 31053). Cells were counted and adjusted to 0.5 Million per mL and plated at a concentration of 10,000 cells in 20 μL per well. They were incubated a minimum of 4 hours at 37° C. under 5% CO2. Cells were treated with 20 μL of the compound to analyze (concentration of 2× diluted in DMEM without FBS containing a maximum of 1% DMSO) and incubated over-night (18 hours, 37° C. and 5% CO2). Each compound has been tested at 6 different concentrations to depict a dose-effect allowing the measure of biochemical parameters such as EC50 and TOP activation (%).
Cells were incubated 30 minutes with 40 μL/well of Steady Glow (Promega) and luminescence was read with TECAN Genios Pro (100 ms/w). Four experiments were carried out for each compound.
Each compound has been tested at 6 different concentrations to depict a dose-effect allowing the measure of biochemical parameters such as EC50 and TOP activation (%).
The mammalian two-hybrid system (M2H) assay consists herein in studying the ability of compounds according to the invention to activate Rev-Erbalpha in cells and thus modulate the interaction with its corepressor. The interaction of the two proteins is assessed with the help of the Luciferase reporter gene. HEK293 cells were transfected with two gene constructions: Gal4-RE VP16-NCoR and Gal4-Rev-Erbalpha or with Gal4-RE, sVP16-NCoR and Gal4-Rev-Erb beta.
The ability of compounds according to the invention of activating Rev-Erbalpha alpha or Rev-Erb beta was assessed in the described cell-based assay. EC50 and TOP activation (%) were measured.
Molecule `FC(F)(F)c1ccc(-c2ccccc2)c(Oc2nn3c(Cl)nnc3c3ccccc23)c1` [Cpd.5-1, 3-chloro-6-(4-trifluoromethyl-biphenyl-2-yloxy)-[1,2,4]triazolo[3,4-a]phthalazine] has an EC50 of under 0.1 µM.
Work on `Cc1nc(-c2ccc(-c3cccnc3)c(Oc3ccc4nnc(Cl)n4n3)c2)no1` [Cpd.4-199, 3-chloro-6-(5-(5-methyl-1,2,4-oxadiazol-3-yl)-2-(pyridin-3-yl)phenoxy)-[1,2,4]triazolo[4,3-b]pyridazine] yielded an EC50 of over 6 µM.
Molecule `COc1ncccc1-c1ccc(C(F)(F)F)cc1Oc1ccc2nnc(Cl)n2n1` [Cpd.4-80, 3-chloro-6-(2-(2-methoxypyridin-3-yl)-5-(trifluoromethyl)phenoxy)-[1,2,4]triazolo[4,3-b]pyridazine hydrochloride] has an EC50 of 0.1 to 1 µM.
In the case of `Cc1cc(Oc2cc(C(F)(F)F)ccc2-c2cncnc2)nn2c(Cl)nnc12` [Cpd.5-30, 3-chloro-8-methyl-6-(2-(pyrimidin-5-yl)-5-(trifluoromethyl)phenoxy)-[1,2,4]triazolo[4,3-b]pyridazine], the EC50 is reported as 1 to 6 µM.
In the case of `CC(C)c1ncncc1-c1ccc(C(F)(F)F)cc1Oc1ccc2nnc(Cl)n2n1` [Cpd.4-128, 3-chloro-6-((2-(4-isopropylpyrimidin-5-yl))-5-(trifluoromethyl)phenoxy)-[1,2,4]triazolo[4,3-b]pyridazine], the EC50 is reported as 1 to 6 µM.
Molecule `Clc1nnc2ccc(Oc3ccc(CN4CCOCC4)cc3-c3ccccc3)nn12` [Cpd.4-62, 3-chloro-6-(5-morpholinomethyl-biphenyl-2-yloxy)-[1,2,4]triazolo[4,3-b]pyridazine] has an EC50 of 1 to 6 µM.
`Clc1nnc2ccc(Oc3ccccc3-c3ccsc3)nn12` [Cpd.4-108, 3-chloro-6-(2-(thiophen-3-yl)phenoxy)-[1,2,4]triazolo[4,3-b]pyridazine] gave an EC50 of 0.1 to 1 µM.
Molecule `Cc1ccc(-c2ccc(C(F)(F)F)cc2Oc2cc(C)c3nnc(Cl)n3n2)cn1` [Cpd.5-16, 3-chloro-8-methyl-6-(2-(6-methylpyridin-3-yl)-5-(trifluoromethyl)phenoxy)-[1,2,4]triazolo[4,3-b]pyridazine] has an EC50 of 0.1 to 1 µM.
With `Cc1cc(Oc2cccc(C(F)(F)F)c2-c2cncnc2)nn2c(Cl)nnc12` [Cpd.5-42, 3-chloro-8-methyl-6-(2-(pyrimidin-5-yl)-3-(trifluoromethyl)phenoxy)-[1,2,4]triazolo[4,3-b]pyridazine] the EC50 was 1 to 6 µM.
`COc1cccc(-c2cc(F)ccc2Oc2ccc3nnc(Cl)n3n2)c1` [Cpd.4-76, 3-chloro-6-(5-fluoro-3′ methoxy-biphenyl-2-yloxy)-[1,2,4]triazolo[4,3-b]pyridazine] gave an EC50 of 0.1 to 1 µM.
With `Cc1nc(-c2ccc(Oc3ccc4nnc(Cl)n4n3)c(-c3ccccc3)c2)no1` [Cpd.4-198, 3-chloro-6-(4-(5-methyl-1,2,4-oxadiazol-3-yl)-2-(phenyl)phenoxy)-[1,2,4]triazolo[4,3-b]pyridazine] the EC50 was 0.1 to 1 µM.
`COc1ncc(-c2ccc(C(F)(F)F)cc2Oc2ccc3nnc(Cl)n3n2)cn1` [Cpd.4-127, 3-chloro-6-((2-(2-methoxypyrimidin-5-yl))-5-(trifluoromethyl)phenoxy)-[1,2,4]triazolo[4,3-b]pyridazine] gave an EC50 of 1 to 6 µM.
For `CC(C)(C)OC(=O)NCc1ccc(-c2ccccc2)c(Oc2ccc3nnc(Cl)n3n2)c1` [Cpd.4-186, 3-chloro-6-(4-tertbutyloxycarbonylaminomethylbiphenyl-2-yloxy)-[1,2,4]triazolo[4,3-b]pyridazine], the EC50 was 1 to 6 µM.
`Cc1cc2nnc(Cl)n2nc1Oc1cc(C(F)(F)F)ccc1-c1cccnc1C` [Cpd.5-20, 3-chloro-7-methyl-6-(2-(2-methylpyridin-3-yl)-5-(trifluoromethyl)phenoxy)-[1,2,4]triazolo[4,3-b]pyridazine] was tested, and the EC50 was 0.1 to 1 µM.
Work on `COc1cccc(-c2ccccc2Oc2ccc3nnc(Cl)n3n2)c1` [Cpd.4-16, 6-(3′-methoxy-biphenyl-2-yloxy)-3-chloro-[1,2,4]triazolo[4,3-b]pyridazine] yielded an EC50 of 0.1 to 1 µM.
For `CCCCN(CCCC)c1ccc(Oc2ccc3nnc(Cl)n3n2)c(-c2ccccc2)c1` [Cpd.4-57, 3-chloro-6-(5-dibutylamino-biphenyl-2-yloxy)-[1,2,4]triazolo[4,3-b]pyridazine], the EC50 was 0.1 to 1 µM.
`CCc1ncncc1-c1ccc(C(F)(F)F)cc1Oc1cc(C)c2nnc(Cl)n2n1` [Cpd.5-53, 3-chloro-6-(2-(4-ethylpyrimidin-5-yl)-5-(trifluoromethyl)phenoxy)-8-methyl-[1,2,4]triazolo[4,3-b]pyridazine] showed an EC50 of 1 to 6 µM.
With `Clc1ccc(Oc2ccc(Cl)cc2Oc2ccc3nnc(Cl)n3n2)c(Cl)c1` [Cpd.4-114, 3-chloro-6-[5-chloro-2-(2,4-dichloro-phenoxy)-phenoxy]-[1,2,4]triazolo[4,3-b]pyridazine] the EC50 was 0.1 to 1 µM.
`Clc1nnc2ccc(Oc3cc(CNC4CCCC4)ccc3-c3ccccc3)nn12` [Cpd.4-179, 3-chloro-6-(4-cyclopentylaminomethylbiphenyl-2-yloxy)-[1,2,4]triazolo[4,3-b]pyridazine] was tested, and the EC50 was 1 to 6 µM.
With `Cc1ncccc1-c1ccc(C(F)(F)F)cc1Oc1nn2c(Cl)nnc2c2ccccc12` [Cpd.5-21, 3-chloro-6-(2-(2-methylpyridin-3-yl)-5-(trifluoromethyl)phenoxy)-[1,2,4]triazolo[3,4-a]phthalazine] the EC50 was 0.1 to 1 µM.
With `COc1ccc(-c2cccc(Oc3ccc4nnc(Cl)n4n3)c2)cc1` [Cpd.3-7, 6-(4′-methoxy-biphenyl-3-yloxy)-3-chloro-[1,2,4]triazolo[4,3-b]pyridazine] the EC50 was 1 to 6 µM.
`CCOc1ccc(-c2ccc(C(F)(F)F)cc2Oc2ccc3nnc(Cl)n3n2)cn1` [Cpd.4-84, 3-chloro-6-(2-(6-ethoxypyridin-3-yl)-5-(trifluoromethyl)phenoxy)-[1,2,4]triazolo[4,3-b]pyridazine] gave an EC50 of 1 to 6 µM.
Work on `FC(F)(F)c1ccc(-c2cccc(CNC3CC3)c2)c(Oc2ccc3nnc(Cl)n3n2)c1` [Cpd.4-168, 3-chloro-6-(4-(trifluoromethyl)-3′-(cyclopropylaminomethyl)biphenyl-2-yloxy)-[1,2,4]triazolo[4,3-b]pyridazine, hydrochloride] yielded an EC50 of 1 to 6 µM.
`Clc1nnc2ccc(Oc3ccccc3-c3cscn3)nn12` [Cpd.4-103, 3-chloro-6-(2-(thiazol-4-yl)phenoxy)-[1,2,4]triazolo[4,3-b]pyridazine] gave an EC50 of over 6 µM.
`CS(=O)(=O)N1CCN(Cc2ccc(Oc3ccc4nnc(Cl)n4n3)c(-c3ccccc3)c2)CC1` [Cpd.4-164, 3-chloro-6-(5-(4-methanesulfonyl-piperazin-1-ylmethyl)biphenyl-2-yloxy)-[1,2,4]triazolo[4,3-b]pyridazine] was tested, and the EC50 was 1 to 6 µM.
Work on `Fc1ccc2c(Oc3cc(C(F)(F)F)ccc3-c3ccccc3)nn3c(Cl)nnc3c2c1` [Cpd.5-2, 3-chloro-6-(4-trifluoromethyl-biphenyl-2-yloxy)-9-fluoro-[1,2,4]triazolo[3,4-a]phthalazine] yielded an EC50 of 0.1 to 1 µM.
Work on `O=C(c1ccccc1)c1cc(Cl)ccc1Oc1ccc2nnc(Cl)n2n1` [Cpd.4-42, (5-chloro-2-(3-chloro-[1,2,4]triazolo[4,3-b]pyridazin-6-yloxy)phenyl)(phenyl)methanone] yielded an EC50 of 1 to 6 µM.

Same assay, conditions: M2H assay, HEK293 cells; relative to DMSO; at the tested dose; read-out: TOP activation
Work on `Cc1nc(-c2ccc(-c3cccnc3)c(Oc3ccc4nnc(Cl)n4n3)c2)no1` [Cpd.4-199, 3-chloro-6-(5-(5-methyl-1,2,4-oxadiazol-3-yl)-2-(pyridin-3-yl)phenoxy)-[1,2,4]triazolo[4,3-b]pyridazine] yielded an Emax of over 130%.
`Clc1nnc2ccc(Oc3ccccc3-c3cscn3)nn12` [Cpd.4-103, 3-chloro-6-(2-(thiazol-4-yl)phenoxy)-[1,2,4]triazolo[4,3-b]pyridazine] showed an Emax of over 130%.

From patent publication US9586963B2 (GENFIT, priority 2011, dated 2017)
